These results are taken from US20220324815A1, “2-PHENOXY-PYRIMIDINE DERIVATIVES AS HERBICIDAL COMPOUNDS” (SYNGENTA CROP PROTECTION AG, priority 2019, published 2022).

Common to all, as to type: in vivo
Common to all, as to conditions: 250 g/ha unless otherwise stated, evaluated after 13 days, five-point scale

Test [1] concerns Amaranthus retoflexus (AMARE). The experiment in a line: Test 1 glasshouse herbicide test, post-emergence application (Table B1). Put shortly:
(§1)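 Score is % phytotoxicity after 13 days, binned 1 (0–20%) to 5 (81–100%). Compound given at 250 g/ha unless stated, as acetone/water (50:50) spray with 0.5% Tween 20, one day post-sowing (pre-emergence) or after 8 days' growth (post-emergence); glasshouse at 24/16 °C day/night, 14 h light, 65% humidity.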

The subject of test [2] is Lolium perenne (LOLPE). The description is as above. Put shortly:
as §1

Test [3] concerns Ipomoea hederacea (IPOHE). Described as above. Put shortly:
as §1

For test [4], the system named is Solanum nigrum (SOLNI). The test is described as above. Put shortly:
as §1

Test [5] concerns Setaria faberi (SETFA). The description is as above. The method, boiled down:
as §1

For test [6], the system named is Echinochloa crus-galli (ECHCG). Described as above. The method, boiled down: as §1
In test [7] the test system is Amaranthus retoflexus (AMARE). The experiment in a line: Test 1 glasshouse herbicide test, pre-emergence application (Table B2). The method, boiled down: as §1
In test [8] the test system is Lolium perenne (LOLPE). Described as above. Put shortly:
as §1

Test [9] deals with Ipomoea hederacea (IPOHE). Described as above. Put shortly:
as §1

Test [10] has as its system Solanum nigrum (SOLNI). The description is as above. The method, boiled down: as §1
In test [11] the test system is Setaria faberi (SETFA). The description is as above. The method, boiled down:
as §1

Test [12] has as its system Echinochloa crus-galli (ECHCG). The test is described as above. Put shortly: as §1

With `N#Cc1cccc(Oc2ncc(Cl)cn2)c1SCCCC(F)(F)F` [Compound A28, 3-(5-chloropyrimidin-2-yl)oxy-2-(4,4,4-trifluorobutylsulfanyl)benzonitrile], the “% phytotoxicity AMARE, post-emergence application” value in [1] is 5 (5=81 to 100%). Moreover, the “% phytotoxicity LOLPE, post-emergence application” value in the test with Lolium perenne (LOLPE) [2] is recorded as 5 (5=81 to 100%). Further, in test [3], the “% phytotoxicity IPOHE, post-emergence application” value is 5 (5=81 to 100%). For the same molecule, the “% phytotoxicity SOLNI, post-emergence application” value with Solanum nigrum (SOLNI) [4] is on record as 5 (5=81 to 100%). Moreover, in the test on Setaria faberi (SETFA) [5], the “% phytotoxicity SETFA, post-emergence application” value was 5 (5=81 to 100%). In addition, the “% phytotoxicity ECHCG, post-emergence application” value in test [6] is recorded as 5 (5=81 to 100%). Besides, the “% phytotoxicity AMARE, pre-emergence application” value in [7] is on record as 5 (5=81 to 100%). The “% phytotoxicity LOLPE, pre-emergence application” value in the test with Lolium perenne (LOLPE) [8] was 5 (5=81 to 100%). The “% phytotoxicity IPOHE, pre-emergence application” value in [9] is 5 (5=81 to 100%). Besides, in the test on Solanum nigrum (SOLNI) [10], the “% phytotoxicity SOLNI, pre-emergence application” value is reported as 5 (5=81 to 100%). For the same molecule, the “% phytotoxicity SETFA, pre-emergence application” value in the test on Setaria faberi (SETFA) [11] was 5 (5=81 to 100%). In addition, the “% phytotoxicity ECHCG, pre-emergence application” value in test [12] is 5 (5=81 to 100%).
Consider `N#Cc1cccc(Oc2ncc(Cl)cn2)c1[S+]([O-])CCCC(F)(F)F` (stereo not drawn) [Compound A29, 3-(5-chloropyrimidin-2-yl)oxy-2-(4,4,4-trifluorobutylsulfinyl)benzonitrile], for which, in test [1], the “% phytotoxicity AMARE, post-emergence application” value is 5 (5=81 to 100%). The “% phytotoxicity LOLPE, post-emergence application” value in the test on Lolium perenne (LOLPE) [2] is 5 (5=81 to 100%). Also, the “% phytotoxicity IPOHE, post-emergence application” value in test [3] is reported as 5 (5=81 to 100%). For the same molecule, the “% phytotoxicity SOLNI, post-emergence application” value with Solanum nigrum (SOLNI) [4] is reported as 5 (5=81 to 100%). For the same molecule, in the test on Setaria faberi (SETFA) [5], the “% phytotoxicity SETFA, post-emergence application” value is 5 (5=81 to 100%). In addition, the “% phytotoxicity ECHCG, post-emergence application” value in test [6] was 5 (5=81 to 100%). In addition, the “% phytotoxicity AMARE, pre-emergence application” value in test [7] is 5 (5=81 to 100%). Also, the “% phytotoxicity LOLPE, pre-emergence application” value in the test on Lolium perenne (LOLPE) [8] is given as 5 (5=81 to 100%). The “% phytotoxicity IPOHE, pre-emergence application” value in [9] was 5 (5=81 to 100%). Further, in the test with Solanum nigrum (SOLNI) [10], the “% phytotoxicity SOLNI, pre-emergence application” value is listed as 5 (5=81 to 100%). The “% phytotoxicity SETFA, pre-emergence application” value with Setaria faberi (SETFA) [11] is 5 (5=81 to 100%). For the same molecule, the “% phytotoxicity ECHCG, pre-emergence application” value in [12] is on record as 5 (5=81 to 100%).
For `N#Cc1cccc(Oc2ncc(Cl)cn2)c1S(=O)(=O)CCCC(F)(F)F` [Compound A30, 3-(5-chloropyrimidin-2-yl)oxy-2-(4,4,4-trifluorobutylsulfonyl)benzonitrile], the “% phytotoxicity AMARE, post-emergence application” value in test [1] was 5 (5=81 to 100%). The “% phytotoxicity LOLPE, post-emergence application” value in the test with Lolium perenne (LOLPE) [2] is 5 (5=81 to 100%). For the same molecule, the “% phytotoxicity IPOHE, post-emergence application” value in [3] was 4 (4=61 to 80%). Besides, the “% phytotoxicity SOLNI, post-emergence application” value with Solanum nigrum (SOLNI) [4] is recorded as 5 (5=81 to 100%). Moreover, the “% phytotoxicity SETFA, post-emergence application” value in the test with Setaria faberi (SETFA) [5] is given as 5 (5=81 to 100%). In addition, in test [6], the “% phytotoxicity ECHCG, post-emergence application” value is 5 (5=81 to 100%). Moreover, the “% phytotoxicity AMARE, pre-emergence application” value in [7] was 5 (5=81 to 100%). For the same molecule, the “% phytotoxicity LOLPE, pre-emergence application” value in the test on Lolium perenne (LOLPE) [8] is 5 (5=81 to 100%). Besides, in test [9], the “% phytotoxicity IPOHE, pre-emergence application” value is given as 5 (5=81 to 100%). Also, in the test on Solanum nigrum (SOLNI) [10], the “% phytotoxicity SOLNI, pre-emergence application” value was 5 (5=81 to 100%). In the test on Setaria faberi (SETFA) [11], the “% phytotoxicity SETFA, pre-emergence application” value is 5 (5=81 to 100%). Moreover, in test [12], the “% phytotoxicity ECHCG, pre-emergence application” value is on record as 5 (5=81 to 100%).
